According to patent publication US20140051679A1, “KINASE INHIBITORS AND METHOD OF TREATING CANCER WITH SAME” (UNIVERISTY HEALTH NETWORKS, priority 2011, published 2014):

Key:
human PLK4 = biological target: T1, human PLK4 (Homo sapiens, UniProt O00444); experiment: PLK4 inhibition assay (indirect ELISA); assay type: biochemical; details: GST-PLK4 4 nM, 15 μM ATP; read-out: IC50 Ranges PLK4
T1 construct: amino terminal GST fusion of residues 1-391 of human PLK4; made in house; host or cells: E. coli
T1 sequence (O00444 1-391): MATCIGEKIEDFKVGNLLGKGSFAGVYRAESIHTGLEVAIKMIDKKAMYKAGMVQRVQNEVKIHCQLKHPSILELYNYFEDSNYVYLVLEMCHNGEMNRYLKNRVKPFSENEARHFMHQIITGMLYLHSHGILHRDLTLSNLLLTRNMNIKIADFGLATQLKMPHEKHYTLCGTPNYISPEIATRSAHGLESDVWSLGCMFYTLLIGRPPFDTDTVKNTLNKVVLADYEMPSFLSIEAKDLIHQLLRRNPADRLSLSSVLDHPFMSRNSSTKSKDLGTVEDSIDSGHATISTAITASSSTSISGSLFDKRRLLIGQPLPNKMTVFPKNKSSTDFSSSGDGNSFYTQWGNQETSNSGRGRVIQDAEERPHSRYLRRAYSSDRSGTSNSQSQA
Outline: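 Dephosphorylated GST-tagged human PLK4 (residues 1-391, E. coli), 4 nM, preincubated 15 min with compound, then reacted 30 min with 15 μM ATP on MBP-coated plates (50 mM HEPES pH 7.5, 10 mM MgCl2, 0.01% Brij 35). Phospho-MBP detected by antibody ELISA at 450 nm. Tested at 10 μM or 10-point titrations; IC50 from 4-parameter logistic fit.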

human TTK = biological target: T2, human TTK (Homo sapiens, UniProt P33981); experiment: TTK inhibition assay (indirect ELISA); assay type: biochemical; details: GST-TTK 0.68 nM, 16 μM ATP; read-out: IC50 Ranges TTK
T2 construct: amino terminal GST fusion of full length human TTK; purchased Invitrogen
T2 sequence (P33981 1-857): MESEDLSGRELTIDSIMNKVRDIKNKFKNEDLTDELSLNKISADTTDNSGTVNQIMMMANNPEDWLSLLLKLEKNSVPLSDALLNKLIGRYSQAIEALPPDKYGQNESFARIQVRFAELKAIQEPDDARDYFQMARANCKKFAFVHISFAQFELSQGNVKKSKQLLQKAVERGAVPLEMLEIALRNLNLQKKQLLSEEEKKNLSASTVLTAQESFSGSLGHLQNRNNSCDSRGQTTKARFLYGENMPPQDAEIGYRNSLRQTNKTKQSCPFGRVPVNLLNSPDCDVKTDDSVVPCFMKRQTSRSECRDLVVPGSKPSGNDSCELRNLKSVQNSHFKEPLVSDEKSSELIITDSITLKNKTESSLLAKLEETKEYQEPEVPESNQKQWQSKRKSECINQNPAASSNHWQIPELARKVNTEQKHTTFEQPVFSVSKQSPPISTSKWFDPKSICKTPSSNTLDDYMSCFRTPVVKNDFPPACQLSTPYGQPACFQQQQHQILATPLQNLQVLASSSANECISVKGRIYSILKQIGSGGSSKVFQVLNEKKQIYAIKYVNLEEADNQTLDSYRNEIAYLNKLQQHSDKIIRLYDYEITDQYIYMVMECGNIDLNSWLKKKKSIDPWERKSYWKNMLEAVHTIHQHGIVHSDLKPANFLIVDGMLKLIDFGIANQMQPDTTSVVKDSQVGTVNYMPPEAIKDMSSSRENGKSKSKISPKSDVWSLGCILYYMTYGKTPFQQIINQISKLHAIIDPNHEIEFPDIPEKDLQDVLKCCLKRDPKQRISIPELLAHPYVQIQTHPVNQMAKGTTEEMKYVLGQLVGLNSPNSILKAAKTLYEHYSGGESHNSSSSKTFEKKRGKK

HT29 colon cancer cells = experiment: Cell growth inhibition, Sulforhodamine B assay, HT29; assay type: cell-based; details: Homo sapiens, HT-29, 120 h, 5 days culture, SRB assay, read-out: Cell Line GI50 Range HT29
[1] = tested on: MDA-MB-468 breast cancer cells; experiment: Cell growth inhibition, Sulforhodamine B assay, MDA-MB-468; assay type: cell-based; details: Homo sapiens, 120 h, 5 days culture, SRB assay, read-out: Cell Line GI50 Range MDA-MB-468
Aurora B = biological target: T3, Aurora B (Homo sapiens, UniProt Q96GD4); experiment: Aurora B inhibition assay (Z-Lyte); assay type: biochemical; details: 28 nM Aurora B, 128 μM ATP; read-out: IC50 Ranges Aurora B
T3 construct: purchased Invitrogen PV3970
Procedure: Aurora B inhibition was determined using the Z-Lyte assay kit from Invitrogen. The assay was performed using the recommended manufacturer's instructions with 128 μM ATP and 28 nM Aurora B (Invitrogen cat #PV3970). The % inhibition values were determined according to the manufacturer's directions and IC50 values were obtained using a non-linear 4 point logistic curve fit (XLfit4, IDBS)

[2] = tested on: HCT116 colon cancer cells; experiment: Cell growth inhibition, Sulforhodamine B assay, HCT116; assay type: cell-based; details: Homo sapiens, HCT-116, 120 h, 5 days culture, SRB assay, read-out: Cell Line GI50 Range HCT116
[3] = tested on: MDA-MB-231 breast cancer cells; experiment: Cell growth inhibition, Sulforhodamine B assay, MDA-MB-231; assay type: cell-based; details: Homo sapiens, 120 h, 5 days culture, SRB assay, read-out: Cell Line GI50 Range MDA-MB-231
[4] = tested on: OVCAR-3 ovarian cancer cells; experiment: Cell growth inhibition, Sulforhodamine B assay, OVCAR-3; assay type: cell-based; details: Homo sapiens, 120 h, 5 days culture, SRB assay, read-out: Cell Line GI50 Range OVCAR-3
[5] = tested on: PA-1 ovarian cancer cells; experiment: Cell growth inhibition, Sulforhodamine B assay, PA-1; assay type: cell-based; details: 120 h, 5 days culture, SRB assay, read-out: Cell Line GI50 Range PA-1

T3 sequence (Q96GD4 whole entry): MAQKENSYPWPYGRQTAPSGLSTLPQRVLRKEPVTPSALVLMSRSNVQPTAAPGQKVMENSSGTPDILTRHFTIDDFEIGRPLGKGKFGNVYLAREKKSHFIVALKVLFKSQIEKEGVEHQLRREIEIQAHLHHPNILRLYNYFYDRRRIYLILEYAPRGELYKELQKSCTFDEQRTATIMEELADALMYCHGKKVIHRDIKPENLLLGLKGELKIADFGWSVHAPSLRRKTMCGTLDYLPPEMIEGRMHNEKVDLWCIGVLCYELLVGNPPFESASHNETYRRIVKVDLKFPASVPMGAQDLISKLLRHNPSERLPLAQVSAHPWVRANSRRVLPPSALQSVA

Row | IC50 (human PLK4) [µM] | IC50 (human TTK) [µM] | GI50 (HT29 colon cancer cells) [µM] | GI50 [1] [µM] | IC50 (Aurora B) [µM] | GI50 [2] [µM] | GI50 [3] [µM] | GI50 [4] [µM] | GI50 [5] [µM] | SMILES
1 | ≤ 5 | ≤ 5 | ≤ 5 | ≤ 5 | ≤ 5 | ≤ 5 | ≤ 5 | ≤ 5 | – | CN1CCC(Oc2ccc(-c3n[nH]c4ccc(NC(=O)C(c5ccsc5)C5CCCC5)cc34)cc2)CC1 (stereo not shown) [Example A36, 2-cyclopentyl-N-(3-(4-((1-methylpiperidin-4-yl)oxy)phenyl)-1H-indazol-5-yl)-2-(thiophen-3-yl)acetamide]
2 | ≤ 5 | ≤ 5 | ≤ 5 | ≤ 5 | ≤ 5 | ≤ 5 | ≤ 5 | ≤ 5 | – | C[C@H](NC(=O)c1ccc2[nH]nc(-c3ccc(OC4CCN(C)CC4)cc3)c2c1)C1CCCCC1 [Example A38, (S)—N-(1-cyclohexylethyl)-3-(4-((1-methylpiperidin-4-yl)oxy)phenyl)-1H-indazole-5-carboxamide]
3 | ≤ 5 | ≤ 5 | ≤ 5 | ≤ 5 | ≤ 5 | ≤ 5 | ≤ 5 | ≤ 5 | – | CN(C)CCCOc1ccc(-c2n[nH]c3ccc(NC(=O)C(c4ccsc4)N4CCCC4)cc23)cc1 (stereo not shown) [Example A43, N-(3-(4-(3-(dimethylamino)propoxy)phenyl)-1H-indazol-5-yl)-2-(pyrrolidin-1-yl)-2-(thiophen-3-yl)acetamide]
4 | ≤ 5 | ≤ 5 | ≤ 5 | ≤ 5 | ≤ 5 | ≤ 5 | ≤ 5 | ≤ 5 | – | O=C(Nc1ccc2[nH]nc(-c3ccc(OCCN4CCCC4)cc3)c2c1)C(c1ccsc1)N1CCCC1 (stereo not shown) [Example A44, 2-(pyrrolidin-1-yl)-N-(3-(4-(2-(pyrrolidin-1-yl)ethoxy)phenyl)-1H-indazol-5-yl)-2-(thiophen-3-yl)acetamideamide]
5 | ≤ 5 | ≤ 5 | ≤ 5 | ≤ 5 | ≤ 5 | ≤ 5 | ≤ 5 | 5 to 20 | – | O=C(Nc1ccc2[nH]nc(-c3ccc(OCCCN4CCOCC4)cc3)c2c1)C(c1ccsc1)N1CCCC1 (stereo not shown) [Example A45, N-(3-(4-(3-morpholinopropoxy)phenyl)-1H-indazol-5-yl)-2-(pyrrolidin-1-yl)-2-(thiophen-3-yl)acetamide]
6 | ≤ 5 | ≤ 5 | ≤ 5 | ≤ 5 | ≤ 5 | ≤ 5 | ≤ 5 | ≤ 5 | – | C[C@@H](NC(=O)c1ccc2[nH]nc(-c3ccc(OC4CCN(C)CC4)cc3)c2c1)c1cccs1 [Example A55, (R)-3-(4-((1-methylpiperidin-4-yl)oxy)phenyl)-N-(1-(thiophen-2-yl)ethyl)-1H-indazole-5-carboxamide]
7 | ≤ 5 | ≤ 5 | ≤ 5 | ≤ 5 | ≤ 5 | ≤ 5 | ≤ 5 | ≤ 5 | – | CN1CCC(Oc2ccc(-c3n[nH]c4ccc(NC(=O)C(c5ccsc5)N5CCCC5)cc34)cc2Cl)CC1 (stereo not shown) [Example A57, N-(3-(3-chloro-4-((1-methylpiperidin-4-yl)oxy)phenyl)-1H-indazol-5-yl)-2-(pyrrolidin-1-yl)-2-(thiophen-3-yl)acetamide]
8 | ≤ 5 | ≤ 5 | ≤ 5 | ≤ 5 | ≤ 5 | ≤ 5 | ≤ 5 | ≤ 5 | – | CC[C@@H](NC(=O)c1ccc2[nH]nc(-c3ccc(N4CCOCC4)cc3)c2c1)c1cccs1 [Example A58, (R)-3-(4-morpholinophenyl)-N-(1-(thiophen-2-yl)propyl)-1H-indazole-5-carboxamide]
9 | ≤ 5 | ≤ 5 | ≤ 5 | ≤ 5 | ≤ 5 | ≤ 5 | ≤ 5 | ≤ 5 | – | CC[C@@H](NC(=O)c1ccc2[nH]nc(-c3ccc(OC4CCN(C)CC4)cc3)c2c1)c1cccs1 [Example A63, (R)-3-(4-((1-methylpiperidin-4-yl)oxy)phenyl)-N-(1-(thiophen-2-yl)propyl)-1H-indazole-5-carboxamide]
10 | ≤ 5 | ≤ 5 | ≤ 5 | ≤ 5 | ≤ 5 | ≤ 5 | ≤ 5 | ≤ 5 | – | CCC(NC(=O)c1ccc2[nH]nc(-c3ccc(OC4CCN(C)CC4)cc3)c2c1)C1CCCCC1 (stereo not shown) [Example A69, N-(1-cyclohexylpropyl)-3-(4-((1-methylpiperidin-4-yl)oxy)phenyl)-1H-indazole-5-carboxamide]
11 | ≤ 5 | ≤ 5 | ≤ 5 | ≤ 5 | ≤ 5 | ≤ 5 | ≤ 5 | ≤ 5 | – | Cc1cc(C)c(NC(=O)Nc2ccc3[nH]nc(-c4ccc(OC5CCN(C)CC5)cc4)c3c2)c(Cl)c1 [Example A77, 1-(2-chloro-4,6-dimethylphenyl)-3-(3-(4-((1-methylpiperidin-4-yl)oxy)phenyl)-1H-indazol-5-yl)urea]
12 | ≤ 5 | ≤ 5 | – | ≤ 5 | ≤ 5 | ≤ 5 | – | – | ≤ 5 | O=C(NC(c1ccsc1)C1CCC1)c1ccc2[nH]nc(-c3ccc(N4CCOCC4)cc3)c2c1 (stereo not shown) [Example A123, N-(cyclobutyl(thiophen-3-yl)methyl)-3-(4-morpholinophenyl)-1H-indazole-5-carboxamide]
13 | ≤ 5 | ≤ 5 | – | ≤ 5 | ≤ 5 | ≤ 5 | – | – | ≤ 5 | COc1cc(-c2n[nH]c3ccc(C(=O)NC(c4ccccn4)C4CC4)cc23)ccc1OC1CCN(C2COC2)CC1 (stereo not shown) [Example A195]
14 | ≤ 5 | ≤ 5 | – | ≤ 5 | ≤ 5 | ≤ 5 | – | – | ≤ 5 | O=C(N[C@@H](c1ccccn1)C1CC1)c1ccc2[nH]nc(-c3ccc(OC4CCN(C5COC5)CC4)cc3)c2c1 [Example A196, (R)—N-(cyclopropyl(pyridin-2-yl)methyl)-3-(4-((1-(oxetan-3-yl)piperidin-4-yl)oxy)phenyl)-1H-indazole-5-carboxamide]
